Assay [1] has as its target T1, CRF2R (Homo sapiens, UniProt Q13324).
T1 sequence (Q13324 1-411): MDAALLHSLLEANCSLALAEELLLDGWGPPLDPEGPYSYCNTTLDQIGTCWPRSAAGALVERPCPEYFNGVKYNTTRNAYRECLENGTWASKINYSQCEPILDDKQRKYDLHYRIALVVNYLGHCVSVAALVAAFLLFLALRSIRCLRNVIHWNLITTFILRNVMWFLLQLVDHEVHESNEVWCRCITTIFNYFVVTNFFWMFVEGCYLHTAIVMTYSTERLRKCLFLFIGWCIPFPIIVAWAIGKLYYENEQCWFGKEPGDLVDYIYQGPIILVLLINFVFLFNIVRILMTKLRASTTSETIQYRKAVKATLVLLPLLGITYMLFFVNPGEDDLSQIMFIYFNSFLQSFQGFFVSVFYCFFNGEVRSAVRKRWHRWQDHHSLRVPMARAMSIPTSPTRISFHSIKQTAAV
Description: CRF2R agonist activity (EC50, Emax), called comparative CRF binding. The class given is cell-based. The conditions noted are these: read-out: CRF2R EC50. The text has this: (§1) The pharmacological activity and selectivity of the peptides of present invention can be determined using published test procedures. See, e.g, U.S. patent application Ser. No. 09/799,978. Because CRF2R and CRF1R are homologous proteins, it is expected that a certain proportion of agonists for CRF2R will also function as agonists of CRF1R. As discussed above, activation of CRF1R induces activation of the HPA axis since increased corticosteroid production leads to skeletal muscle atrophy. In most cases in which an increase in muscle mass or function is desired, it is not desirable to activate the HPA axis.
(§2) Because it is desirable to discriminate binding between CRF2R, as compared with CRF1R, the assays described above may be conducted using a cell, or membrane from a cell, which expresses only CRF2R or the assays can be conducted with a recombinant source of CRF2R. Cells expressing both forms of CRFR may be modified using homologous recombination to inactivate or otherwise disable the CRF1R gene. Alternatively, if the source of CRFR contains more than one CRFR type, the background signal produced by the receptor which is not of interest must be subtracted from the signal obtained in the assay. […] Known antagonists of CRFRs include, but, are not limited to, antalarmin (CRF1R selective), antisauvagine-30 (CRF2R selective) and astressin (nonselective for CRF1R/CRF2R).
(§3) Cell-based assays include the steps of contacting cells which express CRF1R or CRF2R with a peptide of the present invention or control and measuring activation of the CRFR by measuring the expression or activity of components of the CRFR signal transduction pathways.
(§4) As described in the background section above, CRFRs appear to couple through several different pathways including Gαs, Gαq or Gαi, depending upon the cell type. It is thought that agonist activation of CRFR allows the receptor to signal via any of these pathways, provided that the necessary pathway components are present in the particular cell type. Thus, to assay a particular peptide of the present invention for CRFR activation, an assay can use any of the signal transduction pathways as the readout even if the relevant cell type for treatment, in vivo, couples CRFR to skeletal muscle atrophy via a different pathway. […] Assays for measuring activation of these signaling pathways are known in the art.
(§5) For example, after contact with a peptide of the present invention, lysates of the cells can be prepared and assayed for induction of cAMP. cAMP is induced in response to Gαs activation. Because Gαs is activated by receptors other than CRFR and because a test peptide may be exerting its effect through CRFRs or by another mechanism, two control comparisons are relevant for determining whether the peptide increases levels of cAMP via activation of a CRFR. One control compares the cAMP level of cells contacted with the peptide and the cAMP level of cells contacted with a control compound (i.e., the vehicle in which the peptide is dissolved).
(§6) In one example, cAMP induction is measured with the use of DNA constructs containing the cAMP responsive element linked to any of a variety of reporter genes can be introduced into cells expressing CRFRs. Such reporter genes include, but are not limited to, chloramphenicol acetyltransferase (CAT), luciferase, glucuronide synthetase, growth hormone, fluorescent proteins (e.g., Green Fluorescent Protein), or alkaline phosphatase. Following exposure of the cells to the peptide, the level of reporter gene expression can be quantitated to determine the peptide's ability to increase cAMP levels and thus determine the peptide's ability to activate the CRFR.
(§7) In addition to using cells expressing full length CRFRs, cells can be engineered which express CRFRs containing the ligand binding domain of the receptor coupled to, or physically modified to contain, reporter elements or to interact with signaling proteins.

For assay [2], the target named is T2, CRF1R (Homo sapiens, UniProt P34998).
T2 sequence (P34998 24-415): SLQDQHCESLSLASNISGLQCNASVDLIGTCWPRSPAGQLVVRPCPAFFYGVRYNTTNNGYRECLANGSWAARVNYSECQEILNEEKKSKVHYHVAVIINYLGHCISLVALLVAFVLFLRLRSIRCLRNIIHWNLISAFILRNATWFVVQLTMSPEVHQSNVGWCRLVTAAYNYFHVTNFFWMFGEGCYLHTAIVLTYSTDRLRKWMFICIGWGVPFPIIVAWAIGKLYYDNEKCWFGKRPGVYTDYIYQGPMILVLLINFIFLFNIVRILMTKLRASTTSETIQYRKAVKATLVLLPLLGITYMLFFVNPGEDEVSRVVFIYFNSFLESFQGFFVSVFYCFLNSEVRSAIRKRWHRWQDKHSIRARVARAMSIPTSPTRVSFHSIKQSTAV
Description: CRF1R agonist activity (EC50, Emax), called comparative CRF binding. The class given is cell-based. The following applies: read-out: CRF1R EC50.
Source text: as §1, §2, §3, §4, §5, §6, §7

Peptide text beside a SMILES is read from it.

In the case of `CC[C@H](C)[C@H](N)C(=O)N[C@H](C(=O)N[C@@H](CC(C)C)C(=O)N[C@@H](CO)C(=O)N[C@@H](CC(C)C)C(=O)N[C@@H](CC(=O)O)C(=O)N[C@H](C(=O)N1CCC[C@H]1C(=O)N[C@H](C(=O)NCC(=O)N[C@@H](CC(C)C)C(=O)N[C@@H](CC(C)C)C(=O)N[C@@H](CCC(N)=O)C(=O)N[C@H](C(=O)N[C@@H](CC(C)C)C(=O)N[C@@H](CC(C)C)C(=O)N[C@@H](CCC(=O)O)C(=O)N[C@@H](CCC(N)=O)C(=O)N[C@@H](C)C(=O)N[C@@H](CCCNC(=N)N)C(=O)N[C@@H](C)C(=O)N[C@@H](CCCNC(=N)N)C(=O)N[C@@H](C)C(=O)N[C@@H](C)C(=O)N[C@@H](CCCNC(=N)N)C(=O)N[C@@H](CCC(=O)O)C(=O)N[C@@H](CCC(N)=O)C(=O)N[C@@H](C)C(=O)N[C@H](C(=O)N[C@H](C(=O)N[C@@H](CC(N)=O)C(=O)N[C@@H](C)C(=O)N[C@@H](CCCNC(=N)N)C(=O)N[C@H](C(=O)N[C@@H](CC(C)C)C(=O)N[C@@H](C)C(=O)N[C@@H](CCCNC(=N)N)C(=O)N[C@H](C(=O)N[C@@H](CCSC)C(N)=O)C(C)C)[C@@H](C)CC)[C@@H](C)O)[C@@H](C)O)[C@@H](C)CC)[C@@H](C)CC)C(C)C)C(C)C` [compound 356] (H-IVLSLDVPIGLLQILLEQARARAAREQATTNARILARVM-NH2; N-terminus assumed), the EC50 in assay [1] worked out at 83 nM.

In the case of `CC[C@H](C)[C@H](NC(=O)[C@H](C)NC(=O)[C@H](CC(N)=O)NC(=O)[C@H](CCC(N)=O)NC(=O)[C@H](CCC(=O)O)NC(=O)[C@H](C)NC(=O)[C@H](CCCNC(=N)N)NC(=O)[C@H](CCC(=O)O)NC(=O)[C@H](CCCNC(=N)N)NC(=O)[C@H](CCC(N)=O)NC(=O)[C@H](CO)NC(=O)[C@H](CCC(N)=O)NC(=O)[C@@H](NC(=O)[C@H](CCCCN)NC(=O)[C@H](CCC(=O)O)NC(=O)[C@H](CC(C)C)NC(=O)[C@H](CCC(=O)O)NC(=O)[C@H](CC(C)C)NC(=O)[C@H](CC(C)C)NC(=O)[C@@H](NC(=O)[C@H](CCCNC(=N)N)NC(=O)[C@H](CC(C)C)NC(=O)[C@H](CC(C)C)NC(=O)[C@H](CC(C)C)NC(=O)[C@H](CC(C)C)NC(=O)[C@@H]1CCCN1C(=O)[C@H](CC(C)C)NC(=O)[C@H](CC(=O)O)NC(=O)[C@@H](NC(=O)[C@H](CO)NC(=O)[C@H](CC(C)C)NC(=O)[C@H](CO)NC(=O)[C@@H]1CCCN1)[C@@H](C)CC)[C@@H](C)O)[C@@H](C)O)C(=O)N[C@H](C(=O)N[C@@H](Cc1ccccc1)C(=O)N[C@@H](C)C(=O)N[C@@H](CO)C(=O)N[C@H](C(N)=O)C(C)C)[C@@H](C)CC` [compound 348] (H-PSLSIDLPLLLLRTLLELEKTQSQRERAEQNAIIFASV-NH2), the EC50 in assay [1] stood at 5.77 nM. Still for that read-out and setting: to `CC[C@H](C)[C@H](NC(=O)[C@H](C)NC(=O)[C@H](CC(N)=O)NC(=O)[C@H](CCC(N)=O)NC(=O)[C@H](CCC(=O)O)NC(=O)[C@H](C)NC(=O)[C@H](CCCNC(=N)N)NC(=O)[C@H](CCC(=O)O)NC(=O)[C@H](CCCNC(=N)N)NC(=O)[C@H](CCC(N)=O)NC(=O)[C@H](CO)NC(=O)[C@H](CCC(N)=O)NC(=O)[C@@H](NC(=O)[C@H](CCCCN)NC(=O)[C@H](CCC(=O)O)NC(=O)[C@H](CC(C)C)NC(=O)[C@H](CCC(=O)O)NC(=O)[C@H](CC(C)C)NC(=O)[C@H](CC(C)C)NC(=O)[C@@H](NC(=O)[C@H](CCCNC(=N)N)NC(=O)[C@H](CC(C)C)NC(=O)[C@H](CC(C)C)NC(=O)[C@H](CC(C)C)NC(=O)[C@H](CC(C)C)NC(=O)[C@@H]1CCCN1C(=O)[C@H](CC(C)C)NC(=O)[C@H](CC(=O)O)NC(=O)[C@@H](NC(=O)[C@H](CO)NC(=O)[C@H](CC(C)C)NC(=O)[C@H](CO)NC(=O)[C@@H]1CCCN1C(=O)[C@H](CC(N)=O)NC(=O)[C@@H](N)CC(=O)O)[C@@H](C)CC)[C@@H](C)O)[C@@H](C)O)C(=O)N[C@H](C(=O)N[C@@H](Cc1ccccc1)C(=O)N[C@@H](C)C(=O)N[C@@H](CO)C(=O)N[C@H](C(N)=O)C(C)C)[C@@H](C)CC` [compound 346] (H-DNPSLSIDLPLLLLRTLLELEKTQSQRERAEQNAIIFASV-NH2) belongs 8.48 nM. In the case of `CC[C@H](C)[C@H](N)C(=O)N[C@H](C(=O)N[C@@H](CC(C)C)C(=O)N[C@@H](CO)C(=O)N[C@@H](CC(C)C)C(=O)N[C@@H](CC(=O)O)C(=O)N[C@H](C(=O)N1CCC[C@H]1C(=O)N[C@H](C(=O)NCC(=O)N[C@@H](CC(C)C)C(=O)N[C@@H](CC(C)C)C(=O)N[C@@H](CCC(N)=O)C(=O)N[C@H](C(=O)N[C@@H](CC(C)C)C(=O)N[C@@H](CC(C)C)C(=O)N[C@@H](CCC(=O)O)C(=O)N[C@@H](CCC(N)=O)C(=O)N[C@@H](CCC(=O)O)C(=O)N[C@@H](CCCCN)C(=O)N[C@@H](C)C(=O)N[C@@H](CCCNC(=N)N)C(=O)N[C@@H](C)C(=O)N[C@@H](C)C(=O)N[C@@H](CCCNC(=N)N)C(=O)N[C@@H](CCC(=O)O)C(=O)N[C@@H](CCC(N)=O)C(=O)N[C@@H](C)C(=O)N[C@H](C(=O)N[C@H](C(=O)N[C@@H](CC(N)=O)C(=O)N[C@@H](C)C(=O)N[C@@H](CCCNC(=N)N)C(=O)N[C@H](C(=O)N[C@@H](CC(C)C)C(=O)N[C@@H](C)C(=O)N[C@@H](CCCNC(=N)N)C(=O)N[C@H](C(N)=O)C(C)C)[C@@H](C)CC)[C@@H](C)O)[C@@H](C)O)[C@@H](C)CC)[C@@H](C)CC)C(C)C)C(C)C` [compound 107] (H-IVLSLDVPIGLLQILLEQEKARAAREQATTNARILARV-NH2), the EC50 in assay [2] was no less than 1000 nM. As for `CC[C@H](C)[C@H](N)C(=O)N[C@H](C(=O)N[C@@H](CC(C)C)C(=O)N[C@@H](CO)C(=O)N[C@@H](CC(C)C)C(=O)N[C@@H](CC(=O)O)C(=O)N[C@H](C(=O)N1CCC[C@H]1C(=O)N[C@H](C(=O)NCC(=O)N[C@@H](CC(C)C)C(=O)N[C@@H](CC(C)C)C(=O)N[C@@H](CCC(N)=O)C(=O)N[C@H](C(=O)N[C@@H](CC(C)C)C(=O)N[C@@H](CC(C)C)C(=O)N[C@@H](CCC(=O)O)C(=O)N[C@@H](CCC(N)=O)C(=O)N[C@@H](CCC(=O)O)C(=O)N[C@@H](CCCCN)C(=O)N[C@@H](C)C(=O)N[C@@H](CCCNC(=N)N)C(=O)N[C@@H](C)C(=O)N[C@@H](C)C(=O)N[C@@H](CCCNC(=N)N)C(=O)N[C@@H](CCC(=O)O)C(=O)N[C@@H](CCC(N)=O)C(=O)N[C@@H](C)C(=O)N[C@H](C(=O)N[C@H](C(=O)N[C@@H](CC(N)=O)C(=O)N[C@@H](C)C(=O)N[C@@H](CCCNC(=N)N)C(=O)N[C@H](C(=O)N[C@@H](CC(C)C)C(=O)N[C@@H](C)C(=O)N[C@@H](CCCNC(=N)N)C(=O)N[C@H](C(N)=O)C(C)C)[C@@H](C)CC)[C@@H](C)O)[C@@H](C)O)[C@@H](C)CC)[C@@H](C)CC)C(C)C)C(C)C` [compound 325] (H-IVLSLDVPIGLLQILLEQEKARAAREQATTNARILARV-NH2), the EC50 in assay [1] worked out at 11.7 nM.

By EC50 is commonly meant the concentration giving half of the maximal effect.

(Values after US7192924B2, “Corticotropin releasing factor 2 receptor agonists” (priority 2002, dated 2007).)
